Source: the NIST ThermoML archive (doi:10.1021/acs.jced.9b00561)
± gives the expanded uncertainty stated by the source.

Experiment: refractive index (Na D-line) (dimensionless); wn = mass fraction of the nth substance listed
Conditions: 323.15 K, 101.3 kPa, Liquid, Standard Abbe refractometry

## [Cl-].[Li+] [lithium chloride] + O
w1 = 0.4841
  refractive index: 1.439 ± 0.0018

## [Cl-].[Na+] [sodium chloride] + O
w1 = 0.2683
  refractive index: 1.3765 ± 0.0019

## O=BOB([O-])OB([O-])OB=O.[Na+].[Na+] [sodium tetraborate] + O
w1 = 0.0953
  refractive index: 1.3477 ± 0.0004
